Assay results reported in ChEMBL document CHEMBL4699440, “Comprehensive review on the anti-bacterial activity of 1,2,3-triazole hybrids” (Eur J Med Chem, 2019).
Converted amounts (≈) assume the structure as drawn. Blank lines part the entries; values can stand above or below the compound they belong to.

Tests used:
[1] = test system: Geotrichum candidum; test: Antifungal activity against Geotrichum candidum RCMB-05097 assessed as diameter of inhibition zone at 5 mg/ml by diffusion technique; format: functional; settings: read-out: DIZ
[2] = test system: Escherichia coli; test: Antibacterial activity against Escherichia coli RCMB-010052 assessed as diameter of inhibition zone at 5 mg/ml by diffusion technique; format: functional; settings: read-out: DIZ
[3] = test system: Aspergillus fumigatus; test: Antifungal activity against Aspergillus fumigatus RCMB-02568 assessed as diameter of inhibition zone at 5 mg/ml by diffusion technique; format: functional; settings: read-out: DIZ
[4] = test system: Staphylococcus aureus; test: Antibacterial activity against Staphylococcus aureus RCMB-010010 assessed as diameter of inhibition zone at 5 mg/ml by diffusion technique; format: functional; settings: read-out: DIZ
[5] = test system: Bacillus cereus; test: Antibacterial activity against Bacillus cereus RCMB-010067 assessed as diameter of inhibition zone at 5 mg/ml by diffusion technique; format: functional; settings: read-out: DIZ
[6] = test system: Pseudomonas aeruginosa; test: Antibacterial activity against Pseudomonas aeruginosa RCMB-010043 assessed as diameter of inhibition zone at 5 mg/ml by diffusion technique; format: functional; settings: read-out: DIZ
[7] = test system: Candida albicans; test: Antifungal activity against Candida albicans RCMB-05036 assessed as diameter of inhibition zone at 5 mg/ml by diffusion technique; format: functional; settings: read-out: DIZ
[8] = test system: Syncephalastrum racemosum; test: Antifungal activity against Syncephalastrum racemosum RCMB-05922 assessed as diameter of inhibition zone at 5 mg/ml by diffusion technique; format: functional; settings: read-out: DIZ
[9] = test system: Staphylococcus aureus; test: Antibacterial activity against Staphylococcus aureus NCIM-2602 incubated for 12 hrs; format: functional
[10] = test system: Pseudomonas fluorescens; test: Antibacterial activity against Pseudomonas fluorescence NCIM-2059 incubated for 8 hrs; format: functional
[11] = test system: Escherichia coli; test: Antibacterial activity against Escherichia coli NCIM-2576 incubated for 8 hrs; format: functional
[12] = test system: Bacillus subtilis; test: Antibacterial activity against Bacillus subtilis NCIM-2162 incubated for 12 hrs; format: functional
[13] = test system: Staphylococcus aureus; test: Antibacterial activity against methicillin-resistant Staphylococcus aureus; format: functional
[14] = test system: Staphylococcus aureus; test: Antibacterial activity against inducibly-resistant Staphylococcus aureus; format: functional
[15] = test system: Staphylococcus aureus; test: Antibacterial activity against constitutively-resistant Staphylococcus aureus; format: functional
[16] = test system: Staphylococcus aureus; test: Antibacterial activity against Staphylococcus aureus assessed as inhibition zone at 1 mg/ml measured after overnight incubation by disc diffusion method; format: functional; settings: read-out: IZ
[17] = test system: Escherichia coli; test: Antibacterial activity against Escherichia coli assessed as inhibition zone at 1 mg/ml measured after overnight incubation by disc diffusion method; format: functional; settings: read-out: IZ
[18] = test system: Bacillus subtilis; test: Antibacterial activity against Bacillus subtilis assessed as inhibition zone at 1 mg/ml measured after overnight incubation by disc diffusion method; format: functional; settings: read-out: IZ
[19] = test system: Pseudomonas aeruginosa; test: Antibacterial activity against Pseudomonas aeruginosa assessed as inhibition zone at 1 mg/ml measured after overnight incubation by disc diffusion method; format: functional; settings: read-out: IZ
[20] = test system: Klebsiella pneumoniae; test: Antibacterial activity against Klebsiella pneumoniae MTCC 618 incubated for 24 hrs by microdilution method; format: functional
[21] = test system: Pseudomonas aeruginosa; test: Antibacterial activity against Pseudomonas aeruginosa MTCC 741 incubated for 24 hrs by microdilution method; format: functional
[22] = test system: Staphylococcus aureus; test: Antibacterial activity against Staphylococcus aureus MTCC 96 incubated for 24 hrs by microdilution method; format: functional
[23] = test system: Bacillus subtilis; test: Antibacterial activity against Bacillus subtilis MTCC 441 incubated for 24 hrs by microdilution method; format: functional
[24] = test system: Staphylococcus epidermidis; test: Antibacterial activity against Staphylococcus epidermidis incubated for 24 hrs by microdilution method; format: functional
[25] = test system: Escherichia coli; test: Antibacterial activity against Escherichia coli MTCC 443 incubated for 24 hrs by microdilution method; format: functional
[26] = test system: Staphylococcus aureus; test: Antibacterial activity against Staphylococcus aureus ATCC 9144 incubated for 24 hrs by broth dilution method; format: functional
[27] = test system: Bacillus cereus; test: Antibacterial activity against Bacillus cereus ATCC 6630 incubated for 24 hrs; format: functional
[28] = test system: Staphylococcus aureus; test: Antibacterial activity against Staphylococcus aureus ATCC 29737 incubated for 24 hrs; format: functional
[29] = test system: Proteus vulgaris; test: Antibacterial activity against Proteus vulgaris ATCC […] incubated for 24 hrs by broth dilution method; format: functional
[30] = test system: Escherichia coli; test: Antibacterial activity against Escherichia coli NCIM 2256 incubated for 24 hrs; format: functional
[31] = test system: Escherichia coli; test: Antibacterial activity against Escherichia coli ATCC 25922 incubated for 24 hrs by broth dilution method; format: functional
[32] = test system: Micrococcus luteus; test: Antibacterial activity against Micrococcus Luteus ATCC 398 incubated for 24 hrs; format: functional
[33] = test system: Pseudomonas fluorescens; test: Antibacterial activity against Pseudomonas fluorescens NCIM 2173 incubated for 24 hrs; format: functional
[34] = test system: Bacillus spizizenii; test: Antibacterial activity against Bacillus subtilis ATCC 6633 incubated for 24 hrs by broth dilution method; format: functional
[35] = test system: Sphingomonas paucimobilis; test: Antibacterial activity against Flavobacterium devorans ATCC 10829 incubated for 24 hrs; format: functional
[36] = test system: Pseudomonas aeruginosa; test: Antibacterial activity against Pseudomonas aeruginosa MTCC 424 incubated for 24 hrs by two-fold serial dilution method; format: functional
[37] = test system: Bacillus subtilis; test: Antibacterial activity against Bacillus subtilis MTCC 441 incubated for 24 hrs by two-fold serial dilution method; format: functional
[38] = test system: Staphylococcus aureus; test: Antibacterial activity against Staphylococcus aureus MTCC 7443 incubated for 24 hrs by two-fold serial dilution method; format: functional
[39] = test system: Candida albicans; test: Antifungal activity against Candida albicans MTCC 227 incubated for 2 days by microdilution method; format: functional; settings: MTCC 227, 48 h, time 2 day
[40] = test system: Aspergillus brasiliensis; test: Antifungal activity against Aspergillus brasiliensis MTCC 1344 incubated for 7 days by microdilution method; format: functional; settings: MTCC 1344, 168 h, time 7 day
[41] = test system: HepG2; test: Anticancer activity against human HepG2 cells by MTT assay; format: functional, cell-based

Compound: Cc1ccc(-n2nc(N)c(C(=O)NCCNC(=O)c3nn(-c4ccc(C)cc4)nc3N)n2)cc1
- zone of inhibition at 5000 µg/mL [1]: 8.3 mm
- zone of inhibition at 5000 µg/mL [2]: 8.3 mm
- zone of inhibition at 5000 µg/mL [3]: 8.3 mm
- zone of inhibition at 5000 µg/mL [4]: 8.3 mm
- zone of inhibition at 5000 µg/mL [5]: 8.3 mm
- zone of inhibition at 5000 µg/mL [6]: 8.3 mm
- zone of inhibition at 5000 µg/mL [7]: 8.3 mm
- zone of inhibition at 5000 µg/mL [8]: 8.3 mm

Compound: SPIRAMYCIN
- MIC [13]: > 256 µg/mL
- MIC [14]: > 256 µg/mL
- MIC [15]: > 256 µg/mL

Compound: CCn1cc(C(=O)O)c(=O)c2cc(F)c(N3CCNCC3)cc21 [NORFLOXACIN]
- zone of inhibition at 1000 µg/mL [16]: 2.5 mm
- zone of inhibition at 1000 µg/mL [17]: 2.5 mm
- zone of inhibition at 1000 µg/mL [18]: 2.5 mm
- zone of inhibition at 1000 µg/mL [19]: 2.5 mm
- MIC [20]: 9.38 µg/mL (≈ 29.4 µM)

Compound: O=C(N[C@H](CO)[C@H](O)c1ccc([N+](=O)[O-])cc1)C(Cl)Cl [CHLORAMPHENICOL]
- MIC [26]: 1.56 µg/mL (≈ 4.83 µM)
- MIC [27]: 2 µg/mL (≈ 6.19 µM)
- MIC [28]: 2 µg/mL (≈ 6.19 µM)
- MIC [29]: 1.56 µg/mL (≈ 4.83 µM)
- MIC [30]: 2 µg/mL (≈ 6.19 µM)
- MIC [31]: 1.56 µg/mL (≈ 4.83 µM)
- MIC [32]: 2 µg/mL (≈ 6.19 µM)
- MIC [33]: 2 µg/mL (≈ 6.19 µM)
- MIC [34]: 1.56 µg/mL (≈ 4.83 µM)
- MIC [35]: 2 µg/mL (≈ 6.19 µM)

Compound: CC[C@]1(O)C[C@@H]2CN(CCc3c([nH]c4ccccc34)[C@@](C(=O)OC)(c3cc4c(cc3OC)N(C)[C@H]3[C@@](O)(C(=O)OC)[C@H](OC(C)=O)[C@]5(CC)C=CCN6CC[C@]43[C@@H]65)C2)C1 [VINBLASTINE]
- IC50 [41]: 4.6 µg/mL (≈ 5.67 µM)

Continued, values first:

- MIC90 [9]: 4.5 µg/mL (≈ 12.1 µM)
- MIC90 [10]: 4.5 µg/mL (≈ 12.1 µM)
- MIC90 [11]: 4.5 µg/mL (≈ 12.1 µM)
- MIC90 [12]: 4.5 µg/mL (≈ 12.1 µM)
Compound: Fc1ccc(-c2cnnn2Cc2csc(-c3ccc(Cl)cc3)n2)cc1

- MIC [21]: 18.8 µg/mL (≈ 32 µM)
- MIC [22]: 18.8 µg/mL (≈ 32 µM)
- MIC [23]: 18.8 µg/mL (≈ 32 µM)
- MIC [24]: 18.8 µg/mL (≈ 32 µM)
- MIC [25]: 18.8 µg/mL (≈ 32 µM)
- MIC [20]: 18.8 µg/mL (≈ 32 µM)
Compound: O=C(c1cn(Cc2cn(-c3ccc(C(F)(F)F)cc3)nn2)c2cc(N3CCOCC3)c(F)cc2c1=O)N1CCOCC1

- MIC [21]: 18.8 µg/mL (≈ 34.4 µM)
- MIC [22]: 18.8 µg/mL (≈ 34.4 µM)
- MIC [23]: 18.8 µg/mL (≈ 34.4 µM)
- MIC [24]: 18.8 µg/mL (≈ 34.4 µM)
- MIC [25]: 18.8 µg/mL (≈ 34.4 µM)
- MIC [20]: 18.8 µg/mL (≈ 34.4 µM)
Compound: COc1ccc(-n2cc(Cn3cc(C(=O)N4CCCCC4)c(=O)c4cc(F)c(N5CCCCC5)cc43)nn2)cc1

- MIC [36]: 0.167 µM (≈ 0.1 µg/mL)
- MIC [37]: 0.167 µM (≈ 0.1 µg/mL)
- MIC [38]: 0.167 µM (≈ 0.1 µg/mL)
- MIC [39]: 0.167 µM (≈ 0.1 µg/mL)
- MIC [40]: 0.167 µM (≈ 0.1 µg/mL)
Compound: COc1ccc(NC(=O)Cn2cc(COc3ccc(OCc4cn(CC(=O)Nc5ccc(OC)cc5)nn4)cc3)nn2)cc1

- MIC90 [9]: 4.5 µg/mL (≈ 10.5 µM)
- MIC90 [10]: 4.5 µg/mL (≈ 10.5 µM)
- MIC90 [11]: 4.5 µg/mL (≈ 10.5 µM)
- MIC90 [12]: 4.5 µg/mL (≈ 10.5 µM)
Compound: COc1ccc(-c2cnnn2Cc2csc(-c3ccc(Br)cc3)n2)cc1
